Results on 56 compounds are retold here after US7671077B2, “Neuroprotective small organic molecules, compositions and uses related thereto” (priority 2004, dated 2010).

The structures appear in SMILES notation.

One data set relates to midbrain dopaminergic neurons. Put plainly: Dopamine (DA) uptake assay in primary midbrain cultures. Type of data set: cell-based, rat. The following applies: 20 μM. How it is done: Primary midbrain cultures were prepared from rat embryo ventral mesencephalon as described previously by Lin et al (1994). In brief, rostral mesencephalic tegmentum of embryonic day 16 rat embryos was collected in DMEM/F12 (Hyclone SH30023.01) containing 2 mM glutamine on ice, The tissue was treated with 0.1% trypsin in Hanks' balanced salt solution (HBSS, Gibco 14175-095) for 15 min at 37° C. and dissociated mechanically by mild trituration with a fire-polished glass pipet in growth medium plus 2% heat-inactivated fetal bovine serum (FBS). The growth medium consisted of equal volumes of Dulbecco's minimal essential medium DMEM (Gibco 12100-046) and HAM's F12 nutrient mixture (Gibco 21700-075) supplemented with 33 mM glucose, 13 mM sodium bicarbonate, 5 mM HEPES, 2 mM glutamine, 25 μg/ml insulin, 100 μg/ml transferrin, 60 μM putrescine, 20 nM progesterone, 30 nM sodium selenite, 5 U/ml penicillin G and 5 μg/ml streptomycin. 24-well tissue culture plate was coated by adding 15 μg/ml poly-1-ornithine hydrobromide solution at 0.5 ml/well, incubated at room temperature for 1 hr. The coating solution was removed and the well washed 3 times with distilled water and one wash with HBSS. The dissociated cells were plated onto polyornithine-coated wells at 250,000-350,000 trypan blue-excluding viable cells per well in 500 μl of above medium containing 1% FBS. After 3 h when most of the cells had adhered to the bottom of the well, the medium was replaced with 500 μl of fresh medium without FBS. A serial dilution of the sample to be assayed for trophic activity was added to each well in duplicate at the time of medium change or within 24 h thereafter. Unless otherwise stated, cultures were incubated at 37° C. without any further medium change up to 7 days. Primary hindbrain cultures were prepared as described for the midbrain cultures except that the rostral raphe region (instead of the rostral mesencephalon) was dissected and trypsinized for 20 (instead of 15) min.
[^3H]DA uptake was measured in cultures at day 7, and all the solutions were maintained at 37° C. The growth medium was removed, and the cultures were rinsed twice with 0.25 ml of uptake buffer, which consists of HBSS (Gibco 11201-092) supplemented with 28 mM glucose, 15 mM HEPES, 1 mM ascorbic acid (an antioxidant), and […] pargyline (a monoamine oxidase inhibitor). The cultures were then incubated with 0.25 ml of fresh uptake buffer containing 50 nM [^3H]DA (NEN/DuPont) for 20 min at 37° C. [^3H]DA uptake was stopped by removing the incubation mixture, and cells were then washed twice with 0.5 ml of the uptake buffer at room temperature. To release [^3H]DA from the cells, the cultures were lysed with 0.2 ml of 0.1 N NaOH for 1 h at room temperature, the lysate was then added to 1 ml of Microscint-20 (Packard 6013621), and counted for radioactivity in a microplate scintillation counter (Packard TopCount, NXT). Background values were obtained by adding to the uptake buffer 0.5 mM GBR-12909, a specific inhibitor of the high-affinity uptake pump of the dopaminergic neurons, and were usually <5% of the ^3H uptake in untreated control cultures. Forskolin (Fk, 25 μM) was employed as a positive control.
With `O=C(/C=C/c1ccc(Br)cc1)Nc1ccc(S(=O)(=O)Nc2nc[nH]n2)cc1` [X′], the “cytotoxicity in midbrain culture” value is on record as “no cytotoxicity”.
As to `O=C(Nc1ccc(S(=O)(=O)Nc2nc[nH]n2)cc1)c1ccc2ccccc2c1` [Y′], the “cytotoxicity in midbrain culture” value was “no cytotoxicity”.

Still in this data set, the particulars now being: Rattus norvegicus, Neuron, compound concentration 0.6 μM; midbrain culture; read-out: DA uptake % of control.
`O=C(/C=C/c1ccccc1)Nc1ccc(S(=O)(=O)N2CCCCC2)cc1` [K′]: the activity at 0.6 µM came out at 125%.
`O=C(Nc1ccc(S(=O)(=O)Nc2nccs2)cc1)c1sc2ccccc2c1Cl` [D′]: the activity at 0.6 µM was determined as 170%.
The same measure, in the same setting: the figure for `O=C(/C=C/c1cccc(C(F)(F)F)c1Cl)Nc1ccc(S(=O)(=O)Nc2nccs2)cc1` [C′′′] is 180%.
Consider `O=C(/C=C/c1ccc(Br)cc1)Nc1ccc(S(=O)(=O)Nc2nc[nH]n2)cc1` [X′], for which the activity at 0.6 µM stood at 290%.

Staying with this data set, now noted: Rattus norvegicus, Neuron, compound concentration 0.7 μM; midbrain culture; read-out: DA uptake % of control.
Consider `O=C(/C=C/c1cccc(Cl)c1)Nc1ccc(S(=O)(=O)Nc2cnc3ccccc3n2)cc1` [K], for which the activity at 0.7 µM was found to be 190%.

Staying with this data set, now noted: Rattus norvegicus, Neuron, compound concentration 1.25 μM; midbrain culture; read-out: DA uptake % of control.
Consider `O=C(/C=C/c1cccc(Cl)c1)Nc1ccc(S(=O)(=O)Nc2nc[nH]n2)cc1` [B′′′′′], for which the activity at 1.25 µM is 230%.
Turning to `O=C(/C=C/c1ccc(Cl)cc1)Nc1ccc(S(=O)(=O)Nc2ncccn2)cc1` [A′], the activity at 1.25 µM came out at 140%.
In the case of `O=C(/C=C/c1ccc(O)cc1)Nc1ccc(S(=O)(=O)Nc2ccccn2)cc1` [L′′′], the activity at 1.25 µM was found to be 130%.
For `O=C(CCN1C(=O)S/C(=C\c2ccc(Cl)cc2)C1=O)Nc1ccc(S(=O)(=O)Nc2nccs2)cc1` [S′], the activity at 1.25 µM worked out at 150%.
Turning to `O=C(/C=C/c1ccccc1Br)Nc1ccc(S(=O)(=O)Nc2nc[nH]n2)cc1` [D″], the activity at 1.25 µM turned out to be 310%.
Take `O=C(/C=C/c1cc2c(cc1Br)OCO2)Nc1ccc(S(=O)(=O)Nc2nccs2)cc1` [W″]: the activity at 1.25 µM came to 330%.
Turning to `Cc1ccccc1/C=C/C(=O)Nc1ccc(S(=O)(=O)Nc2nc[nH]n2)cc1` [X′′′′], the activity at 1.25 µM turned out to be 260%.
For `Cc1cccc(/C=C/C(=O)Nc2ccc(S(=O)(=O)Nc3nc[nH]n3)cc2)c1` [E″], the activity at 1.25 µM stood at 290%.
For `COc1cc(Br)c(/C=C/C(=O)Nc2ccc(S(=O)(=O)Nc3nccs3)cc2)cc1OC` [B′′′], the activity at 1.25 µM turned out to be 260%.
For `O=C(Nc1ccc(S(=O)(=O)Nc2nc[nH]n2)cc1)c1ccc2ccccc2c1` [Y′], the activity at 1.25 µM was 290%.
For the compound `O=C(/C=C/c1cccc(OC(F)(F)F)c1)Nc1ccc(S(=O)(=O)Nc2nccs2)cc1` [V′′′′], the activity at 1.25 µM turned out to be 200%.

The same data set, now with this note: Rattus norvegicus, Neuron, compound concentration 2.5 μM; midbrain culture; read-out: DA uptake % of control.
Take `O=C(/C=C/c1ccccc1Cl)Nc1ccc(S(=O)(=O)Nc2ncccn2)cc1` [C′]: the activity at 2.5 µM was found to be 140%.
As to `O=C(/C=C/c1ccccc1)Nc1ccc(S(=O)(=O)N2CCCCC2)cc1` [K′], the activity at 2.5 µM came to 320%.
Regarding `O=C(/C=C/c1cccc(Br)c1)Nc1ccc(S(=O)(=O)Nc2nccs2)cc1` [M′′′′], the activity at 2.5 µM came to 190%.
The same measure, in the same setting: then `Cc1ccccc1/C=C/C(=O)Nc1ccc(S(=O)(=O)Nc2nccs2)cc1` [T″], with 230%.
Regarding `Cc1ccccc1/C=C/C(=O)Nc1ccc(S(=O)(=O)Nc2nc[nH]n2)cc1` [D′′′′′], the activity at 2.5 µM is 260%.
For the compound `Cc1cccc(/C=C/C(=O)Nc2ccc(S(=O)(=O)Nc3nccs3)cc2)c1` [G′′′′], the activity at 2.5 µM is 220%.
Consider `COc1ccc(/C=C2\SC(=O)N(CCC(=O)Nc3ccc(S(=O)(=O)Nc4nccs4)cc3)C2=O)cc1` [R′], for which the activity at 2.5 µM stood at 155%.
For the compound `O=C(Nc1ccc(S(=O)(=O)Nc2nccs2)cc1)c1cc2ccccc2o1` [E′′′′], the activity at 2.5 µM came to 260%.
For the compound `COc1ccc(/C=C/C(=O)Nc2ccc(S(=O)(=O)Nc3cc(C)nc(C)n3)cc2)cc1Br` [Q], the activity at 2.5 µM stood at 140%.
Turning to `O=C(/C=C/c1ccccc1[N+](=O)[O-])Nc1ccc(S(=O)(=O)Nc2nccs2)cc1` [P′′′′], the activity at 2.5 µM came to 150%.
In the case of `COc1ccccc1/C=C\C(=O)Nc1ccc(S(=O)(=O)Nc2nccs2)cc1` [L′′′′], the activity at 2.5 µM stood at 200%.
Same read-out and setting: then `COc1ccccc1/C=C/C(=O)Nc1ccc(S(=O)(=O)Nc2nc[nH]n2)cc1` [Y″], with 180%.
In the case of `O=C(/C=C/c1ccccc1Br)Nc1ccc(S(=O)(=O)Nc2ccccn2)cc1` [U″], the activity at 2.5 µM was 210%.
With `O=C(/C=C/c1ccccc1Cl)Nc1ccc(S(=O)(=O)Nc2ccccn2)cc1` [F″], the activity at 2.5 µM is 180%.
As for `O=C(/C=C/c1ccccc1Cl)Nc1ccc(S(=O)(=O)N2CCOCC2)cc1` [I′], the activity at 2.5 µM is 150%.
On to `O=C(/C=C/c1cccc(F)c1)Nc1ccc(S(=O)(=O)Nc2nccs2)cc1` [I′′′′], for which the activity at 2.5 µM came to 200%.
As for `O=C(Nc1ccc(S(=O)(=O)Nc2nccs2)cc1)c1cc2ccccc2s1` [N′′′′], the activity at 2.5 µM was 170%.
For the compound `COc1cccc(/C=C/C(=O)Nc2ccc(S(=O)(=O)Nc3nccs3)cc2)c1` [J′′′], the activity at 2.5 µM was determined as 140%.
For the compound `O=C(Nc1ccc(S(=O)(=O)Nc2cccs2)cc1)c1ccc2ccccc2c1` [C″], the activity at 2.5 µM came to 200%.

Still in this data set, the particulars now being: Rattus norvegicus, Neuron, compound concentration 5 μM; midbrain culture; read-out: DA uptake % of control.
With `Cc1cccc(/C=C/C(=O)Nc2ccc(S(=O)(=O)Nc3ccccn3)cc2)c1` [B′′′′], the activity at 5 µM is 240%.
On to `CCc1nnc(NS(=O)(=O)c2ccc(NC(=O)c3ccc(Cl)cc3Cl)cc2)s1` [B′], for which the activity at 5 µM is 150%.
For the compound `Cc1cc(NS(=O)(=O)c2ccc(NC(=O)/C=C/c3ccccc3Cl)cc2)no1` [B″], the activity at 5 µM was determined as 180%.
For the compound `Cc1noc(NS(=O)(=O)c2ccc(NC(=O)/C=C/c3ccc(Cl)cc3)cc2)c1C` [J′], the activity at 5 µM is 180%.
On to `Cc1noc(NS(=O)(=O)c2ccc(NC(=O)/C=C/c3ccccc3Cl)cc2)c1C` [L′], for which the activity at 5 µM was 140%.
On to `O=C(CCN1C(=O)S/C(=C\c2ccccc2)C1=O)Nc1ccc(S(=O)(=O)Nc2nccs2)cc1` [Q′], for which the activity at 5 µM is 180%.
With `O=C(/C=C/c1cccc(O)c1)Nc1ccc(S(=O)(=O)Nc2ccccn2)cc1` [M′′′], the activity at 5 µM amounted to 170%.

Still in this data set, the particulars now being: Rattus norvegicus, Neuron, compound concentration 10 μM; midbrain culture; read-out: DA uptake % of control.
Consider `Cc1cccc(C(=O)Nc2ccc(S(=O)(=O)Nc3nccs3)cc2)c1` [T], for which the activity at 10 µM is 140%.
Consider `O=C(Nc1ccc(S(=O)(=O)Nc2nccs2)cc1)c1cccc(C(F)(F)F)c1` [V], for which the activity at 10 µM was found to be 220%.
As for `CCOc1ccc(C(=O)Nc2ccc(S(=O)(=O)Nc3nccs3)cc2)cc1` [L], the activity at 10 µM is 160%.
Regarding `O=C(/C=C/c1ccccc1Cl)Nc1ccc(S(=O)(=O)Nc2nncs2)cc1` [U′′′], the activity at 10 µM is 180%.
In the case of `COc1cccc(/C=C/C(=O)Nc2ccc(S(=O)(=O)Nc3ccccn3)cc2)c1` [N′′′], the activity at 10 µM came to 180%.
Take `O=C(/C=C/c1ccccc1O)Nc1ccc(S(=O)(=O)Nc2nccs2)cc1` [P′′′]: the activity at 10 µM worked out at 150%.
Turning to `COc1cccc(C(=O)Nc2ccc(S(=O)(=O)Nc3nccs3)cc2)c1` [F′′′], the activity at 10 µM was determined as 140%.

The data set is the same for the next values; noted with them: Rattus norvegicus, Neuron, compound concentration 20 μM; midbrain culture; read-out: DA uptake % of control.
Take `COc1cc(OC)cc(C(=O)Nc2ccc(S(=O)(=O)Nc3nccs3)cc2)c1` [J]: the activity at 20 µM was found to be 150%.
Same read-out and setting: then `O=C(/C=C/c1ccc(F)cc1)Nc1ccc(S(=O)(=O)Nc2nccs2)cc1` [O], with 240%; and `COc1ccc(/C=C/C(=O)Nc2ccc(S(=O)(=O)Nc3ccccn3)cc2)cc1` [H′′′], with 180%.
With `Cc1ccc(C(=O)Nc2ccc(S(=O)(=O)Nc3nccs3)cc2)cc1` [R], the activity at 20 µM was 140%.
The same measure, in the same setting: then `O=C(/C=C/c1ccccc1)Nc1ccc(S(=O)(=O)Nc2ccccn2)cc1` [G′′′], with 180%.

Staying with this data set, now noted: Rattus norvegicus, Neuron, compound concentration 40 μM; midbrain culture; read-out: DA uptake % of control.
On to `O=C(Nc1ccc(S(=O)(=O)Nc2nccs2)cc1)c1cncc(Br)c1` [V′], for which the activity at 40 µM amounted to 130%.

The same data set, now with this note: Rattus norvegicus, Neuron; midbrain culture, FIG. 36; read-out: half-maximal effective concentration (EC50) for DA uptake stimulation.
Regarding `O=C(/C=C/c1ccc(Br)cc1)Nc1ccc(S(=O)(=O)Nc2nc[nH]n2)cc1` [X′], the EC50 is approximately 200 nM.
Same read-out and setting: the figure for `O=C(Nc1ccc(S(=O)(=O)Nc2nc[nH]n2)cc1)c1ccc2ccccc2c1` [Y′] is approximately 200 nM.

The same data set, now with this note: compound concentration 1.25 μM; midbrain culture; 1.25 µM.
Turning to `O=C(/C=C/c1c(Cl)cccc1Cl)Nc1ccc(S(=O)(=O)Nc2nccs2)cc1` [C′′′′′], the “DA uptake % of control” value is listed as 310% of control.

The same data set, now with this note: compound concentration 2.5 μM; midbrain culture.
Compound `O=C(/C=C/c1ccccc1Br)Nc1ccc(S(=O)(=O)Nc2nccs2)cc1` [J′′′′] gave a DA uptake % of control of 210%.
